According to patent US20120184586A1, “DESFERRITHIOCIN POLYETHER ANALOGUES AND USES THEREOF” (University of Florida Research Foundation, Inc., priority 2009, published 2012):
Where “and” joins values, the source holds several entries; their conditions need not be identical. Equal entries are not always repeated. Entries after “also recorded” stand apart in the source; their conditions may differ. Where two headings read alike, the source gives them in different places.

Columns and labels:
[1] = system: iron-overloaded Cebus apella primates; assay: Chelator-induced iron clearance (ICE) in iron-overloaded Cebus apella primates; type: in vivo; conditions: for performance ratio (PR), mean ICEprimates/ICErodents: current study; for ICE (iron-clearing efficiency), primates: iron-overloaded C. apella
Protocol: The drugs were administered in capsules (6, 7), solubilized in either 40% Cremophor RH-40/water (1), distilled water (4), or were given as their monosodium salts, prepared by the addition of 1 equiv of NaOH to a suspension of the free acid in distilled water (2, 3, 5). The efficiency of each compound was calculated by subtracting the 24-h iron excretion of control animals from the iron excretion of the treated animals. The number was then divided by the theoretical output; the result is expressed as a percent. […] The relative percentages of the iron excreted in the bile and urine are in brackets. ^cIn the primates [n=4 (1, 3, 4, 5, 6 in capsules, 7) or 7 (2, 6 as the monosodium salt)], the chelators were given po at a dose of 75 μmol/kg (5-7) or 150 μmol/kg (1-4). The drugs were administered in capsules (6^d, 7), solubilized in either 40% Cremophor RH-40/water (1, 3), distilled water (4), or were given as their monosodium salts, prepared by the addition of 1 equiv of NaOH to a suspension of the free acid in distilled water (2, 5, 6^e).
Iron chelators in a Cebus apella monkey model. […] Briefly, the monkeys are iron overloaded with iron dextran administered intravenously to result in an iron loading of about 500 mg per kg of body weight. At least 20 half-lives, 60 days, elapse before the animals are used in experiments evaluating iron chelators. The iron chelators are suspended in vehicle and administered either p.o. or s.c. Fecal and urine samples are collected at 24 hour intervals beginning 4 days prior to the administration of an iron chelator and continued for 5 days after the chelator is administered. Iron concentrations in stool and urine are determined by flame atomic absorption spectroscometry. Iron chelator efficiency is calculated by dividing the net iron clearance [total iron excretion (stool plus urine) minus background] by the theoretical iron clearance and multiplying by 100. The theoretical clearance of the iron chelator is generated on the basis of a 2:1 ligand/iron complex.
Drug preparation and administration. In the iron clearing experiments, the rats were given 5-7 orally at a dose of 300 μmol/kg. Ligand 5 was given by gavage as its monosodium salt (prepared by the addition of 1 equiv of NaOH to a suspension of the free acid in distilled water), while 6 and 7 were given in capsules. The primates were given 5-7 orally at a dose of Ligand 5 was given to the primates by gavage as its monosodium salt. Analogue 6 was given to the monkeys by gavage as its monosodium salt, as well as in capsules. Ligand 7 was given to the monkeys in capsules.

[2] = system: non-iron-overloaded, bile duct-cannulated rats; assay: Chelator-induced iron clearance (ICE, biliary ferrokinetics) in non-iron-overloaded, bile duct-cannulated rodents; type: in vivo, rat (male Sprague-Dawley); conditions: for ICE (iron-clearing efficiency), rodents / time of maximum iron clearance (MIC), biliary ferrokinetics / time until iron excretion is over / returned to baseline, biliary ferrokinetics: bile duct-cannulated rats; for ICE relative to trioxa polyether 4 (times) / ICE relative to parent ligand 2 (times): rodents, po 300 μmol/kg; for time of maximum iron clearance (MIC), biliary ferrokinetics / time until iron excretion is over / returned to baseline, biliary ferrokinetics: 300 μmol/kg PO
[3] = system: rats; assay: Tissue iron decorporation in rats after 10 days of oral dosing; type: in vivo, rat (male Sprague-Dawley)
Source text: Tissue iron decorporation: As described above, rodents were given acid 6 or 7 orally at a dose of 384 μmol/kg/day×10 days. Ethyl ester 7 was also given at a dose of 192 μmol/kg/d×10 days. On day 11, the animals were euthanized and the kidney, liver, pancreas, and heart were removed.
Male Sprague-Dawley rats (300-350 g) were fasted overnight and were given the chelators first thing in the morning. […] Ligand 6 was given to the rats orally once daily at a dose of 384 μmol/kg/d×10 d. Note that this dose is equivalent to 100 mg/kg/day of the DFT sodium salt. The chelator (6) was administered orally in gelatin capsules (n=5), or by gavage as its monosodium salt (n=10). The ethyl ester (7) was administered orally in capsules once daily at a dose of 192 (n=6) or 384 μmol/kg/d (n=5)×10 d. Age-matched rats (n=12) served as untreated controls. The rats were euthanized 24 h post-drug (day 11) and extensive tissues were collected for histopathological analysis. Samples of the kidney, liver, heart and pancreas were reserved and assessed for their iron content.
The initial step in the tissue preparation involved removing any obvious membranes or fat. A sample of each tissue (300-350 mg) was weighed and transferred to acid-washed hydrolysis (pressure) tubes. Note that the same region of each tissue was always utilized. […] The tubes were then sealed and placed in a 120° C. oil bath for 5 h; the tubes were vented as necessary. Then, the tubes were removed from the oil bath and allowed to cool to room temperature. The temperature of the oil bath was decreased to 100° C. Once the samples were cooled, 0.7 mL of hydrogen peroxide (30%) was added to the hydrolysis tube. The samples were placed back in the oil bath and cooked overnight. The samples were then removed from the oil bath and allowed to cool to room temperature. The hydrolysis tubes were vortexed and the digested samples were poured into 50-mL volumetric flasks. The samples were brought to volume using distilled water. Finally, the samples were poured into a syringe and filtered using 0.45μ 30 mm, Teflon syringe filters. Iron concentrations were determined by flame absorption spectroscopy as presented in other publications.^40,41

[4] = Octanol/water partition (log Papp), shake flask direct method, Tris buffer pH 7.4; conditions: from log Papp values
Protocol: The efficiency of each compound was calculated by subtracting the 24-h iron excretion of control animals from the iron excretion of the treated animals. The number was then divided by the theoretical output; the result is expressed as a percent. […] The relative percentages of the iron excreted in the bile and urine are in brackets. ^cIn the primates [n=4 (1, 3, 4, 5, 6 in capsules, 7) or 7 (2, 6 as the monosodium salt)], the chelators were given po at a dose of 75 μmol/kg (5-7) or 150 μmol/kg (1-4).
The partition values between octanol and water (at pH 7.4, Tris buffer) were determined using a “shake flask” direct method of measuring log Papp values.^52 The fraction of drug in the octanol is then expressed as log Papp.

[5] = Control incubation of ester 7 in saline in place of plasma; type: physicochemical; conditions: solubilized in DMSO
Protocol: (§1) The profound difference between the ICE of the parent acid chelator 6 versus that of the ester 7 in rodents and primates is consistent with two possible explanations: 1) The ester is poorly absorbed from the gastrointestinal (GI) tract in the primates, or 2) The primate non-specific serum esterases simply may not cleave ester 7 to the active chelator acid 6. An experiment was performed using rat and monkey plasma in an attempt to determine if the relatively poor ICE of 7 in the primates was due to interspecies differences in hydrolysis. When 7 was solubilized in DMSO and incubated at 37° C. with rat plasma, all of the ester had been converted to the active acid 6 within 1-2 h. This was also the case when the experiment was carried out with plasma from Cebus apella monkeys. Thus, there is no difference in the hydrolysis of 7 between the rats and the primates. Therefore, the poor ICE of 7 in the monkeys is consistent with the idea that the ester is absorbed much more effectively from the GI tract of the rodents than from the GI tract of the primates. Control experiments were also performed in which saline was used in place of the rat or monkey plasma.
The ethyl ester (7) was solubilized in DMSO and further diluted with distilled water to provide a 100 μM solution. A 25 μL aliquot of the drug solution was added to centrifuge tubes containing 100 μL of rat or primate plasma. […]

[6] = Hydrolysis of ester 7 to acid 6 in rat plasma; type: in vitro ADME; conditions: 37° C., solubilized in DMSO
Protocol: as §1
(§2) Plasma analytical methods. […] The chelator concentrations were calculated from the peak area fitted to calibration curves by non-weighted least-squares linear regression with Shimadzu CLASS-NP 7.4 Chromatography Software. […]

[7] = Hydrolysis of ester 7 to acid 6 in Cebus apella monkey plasma; type: in vitro ADME; conditions: 37° C., solubilized in DMSO
Protocol: as §1, §2

[8] = system: non-iron-overloaded, bile duct-cannulated rats; conditions: historical data, cited from earlier work
[9] = 2:1 complex with Fe(III); cited from earlier work
[10] = historical findings from references; cited from earlier work
[11] = system: iron-overloaded Cebus apella primates; conditions: cited from earlier work
[12] = trial abandoned by Genzyme; cited from earlier work
[13] = po 75 μmol/kg by gavage as monosodium salt
[14] = 384 μmol/kg/day × 10 days po as sodium salt
[15] = 384 μmol/kg/day × 10 days po in capsules
[16] = 192 μmol/kg/d × 10 days po in capsules
[17] = bile duct-cannulated rats, po 300 μmol/kg

COCCOCCOc1ccc(C2=N[C@@](C)(C(=O)O)CS2)c(O)c1 [ligand 6, (S)-4,5-dihydro-2-[2-hydroxy-4-(3,6-dioxaheptyloxy)phenyl]-4-methyl-4-thiazolecarboxylic acid]
performance ratio (PR), mean ICEprimates/ICErodents [1]: 1.0
ICE (iron-clearing efficiency), primates [1, 13]: 28.7±12.4%
ICE (iron-clearing efficiency), primates ([1]; po 75 μmol/kg in capsules): 26.3±9.9% and > 26%
ICE (iron-clearing efficiency), rodents ([2]; po 300 μmol/kg in capsules): > 26%
ICE (iron-clearing efficiency), rodents ([2]; po 300 μmol/kg in capsules, listed as 6): 26.7±4.7%
ICE relative to trioxa polyether 4 (times) [2]: nearly five times greater
decrease of cardiac iron vs untreated controls [3, 14]: 9.9%
reduction of liver iron vs untreated controls [3, 14]: > 35%
reduction of pancreatic iron vs untreated controls [3, 14]: significant reduction in pancreatic iron
reduction of renal iron content vs untreated controls [3, 14]: 24.8%
decrease of cardiac iron vs untreated controls [3, 15]: 6.9%
reduction of liver iron vs untreated controls [3, 15]: > 35%
reduction of pancreatic iron vs untreated controls [3, 15]: but not when it was dosed in capsules
reduction of renal iron content vs untreated controls [3, 15]: 7.4%

CCOC(=O)[C@@]1(C)CSC(c2ccc(OCCOCCOC)cc2O)=N1 [ligand 7, ethyl (S)-4,5-dihydro-2-[2-hydroxy-4-(3,6-dioxaheptyloxy)phenyl]-4-methyl-4-thiazolecarboxylate]
fold difference in partition ([4]; 7 vs 1): greater than 58.000 fold
times more lipophilic than the parent 2 ([4]; 7 vs 2): 11,220
performance ratio (PR), mean ICEprimates/ICErodents [1]: 0.33
ICE (iron-clearing efficiency), primates ([1]; po 75 μmol/kg in capsules): 8.8±2.2%
ICE relative to acid 6 ([1]; primates): only one third
ICE (iron-clearing efficiency), rodents ([2]; po 300 μmol/kg in capsules): 25.9±6.5%
ICE relative to parent ligand 2 (times) [2]: approximately 24
stability of the ester in saline [5]: all of the drug remained in the form of the ester
decrease of cardiac iron vs untreated controls [3, 16]: Neither dose was associated with a reduction
reduction of liver iron vs untreated controls [3, 16]: 27%
reduction of pancreatic iron vs untreated controls [3, 16]: Neither dose was associated with a reduction
reduction of renal iron content vs untreated controls [3, 16]: 12.6%
decrease of cardiac iron vs untreated controls [3, 15]: Neither dose was associated with a reduction
reduction of liver iron vs untreated controls [3, 15]: 59.1%
reduction of pancreatic iron vs untreated controls [3, 15]: Neither dose was associated with a reduction
reduction of renal iron content vs untreated controls [3, 15]: 32.1%
time for conversion of all of the ester to the active acid 6 [6]: 1 to 2 h
time for conversion of all of the ester to the active acid 6 [7]: 1 to 2 h

C[C@]1(C(=O)O)CSC(c2ncccc2O)=N1 [ligand 1, (S)-4,5-dihydro-2-(3-hydroxy-2-pyridinyl)-4-methyl-4-thiazolecarboxylic acid]
ICE (iron-clearing efficiency), rodents ([8]; bile duct-cannulated rodent model, po 150 μmol/kg): 5.5%
log β2 [9]: 29.6
nephrotoxicity [10]: severely nephrotoxic
ICE (iron-clearing efficiency), primates ([11]; iron-overloaded C. apella, po 150 μmol/kg, historical data): 16%

COCCOCCOCCOCCOc1ccc(C2=N[C@@](C)(C(=O)O)CS2)c(O)c1 [ligand 5, (S)-4,5-dihydro-2-[2-hydroxy-4-(3,6,9,12-tetraoxamidecyloxy)phenyl]-4-methyl-4-thiazolecarboxylic acid]
performance ratio (PR), mean ICEprimates/ICErodents [1]: 0.82
ICE (iron-clearing efficiency), primates [1, 13]: 9.8±1.9%
time of maximum iron clearance (MIC), biliary ferrokinetics [2]: 6 h
time until iron excretion is over / returned to baseline, biliary ferrokinetics [2]: 24 h
ICE (iron-clearing efficiency), rodents ([2]; po 300 μmol/kg by gavage as monosodium salt): 12.0±1.5%
ICE relative to parent ligand 2 (times) [2]: ~11
ICE relative to trioxa polyether 4 (times) [2]: twice as effective

COc1ccc(C2=N[C@@](C)(C(=O)O)CS2)c(O)c1 [ligand 3, (S)-4,5-dihydro-2-(2-hydroxy-4-methoxyphenyl)-4-methyl-4-thiazolecarboxylic acid]
nephrotoxicity [10]: very nephrotoxic; also recorded: unacceptably nephrotoxic

COCCOCCOCCOc1ccc(O)c(C2=NC(C)(C(=O)O)CS2)c1 (single isomer, unassigned) [5′-isomer of 4]
performance ratio (PR), mean ICEprimates/ICErodents ([11]; previously reported (ref 46)): 1
ICE (iron-clearing efficiency), primates ([11]; previously reported, dose not stated): 8.1±2.8%

COCCOCCOCCOc1ccc(C2=N[C@@](C)(C(=O)O)CS2)c(O)c1 [ligand 4, (S)-4,5-dihydro-2-[2-hydroxy-4-(3,6,9-trioxadecyloxy)phenyl]-4-methyl-4-thiazolecarboxylic acid, reference compound]
ICE (iron-clearing efficiency), rodents [8, 17]: 5.5±1.9%
nephrotoxicity [10]: virtually absent of any nephrotoxicity
ICE relative to longer analogue 5 (times) ([1]; primates): 2.5
time of maximum iron clearance (MIC), biliary ferrokinetics [2]: 3 h
time until iron excretion is over / returned to baseline, biliary ferrokinetics [2]: 12 h
ICE relative to parent ligand 2 (times) [2]: five times greater

C[C@]1(C(=O)O)CSC(c2ccc(O)cc2O)=N1 [ligand 2, (S)-2-(2,4-dihydroxyphenyl)-4,5-dihydro-4-methyl-4-thiazolecarboxylic acid]
ICE (iron-clearing efficiency), rodents [8, 17]: 1.1±0.8%
time of maximum iron clearance (MIC), biliary ferrokinetics [2]: 3 h
time until iron excretion is over / returned to baseline, biliary ferrokinetics [2]: 9 h
clinical trial outcome [12]: abandoned by Genzyme because of renal toxicity
